Measurements reported in publication PMC11614538, “The proline-rich antimicrobial peptide B7-005: low bacterial resistance, safe for human cells and effective in zebrafish embryo bacteraemia model” (Open Biology, 2024).
Converted amounts (≈) assume the structure as drawn. Residues, ends and D or L forms follow the SMILES beside them.

Columns and labels:
[1] = test system: E. coli ATCC 25922; test: microbe, parasite or virus in culture; conditions: for MIC after 14th passage: 14 daily passages at one-half MIC, 18 h; for MIC: Escherichia coli, ATCC25922
Description: Escherichia coli ATCC 25922 was purchased from the American Type Culture Collection (ATCC) (Manassas, Virginia, USA) and stored at −80°C as glycerol stock until use. Bacterial cultures were grown overnight in sterile Müller–Hinton broth (MHB) (Difco Inc.) at 37°C under agitation (140 r.p.m.). The next day, the cultures were diluted 1 : 30 in new MHB and incubated as described above for about 2 h (mean logarithmic phase) until they reached an optical density at 600 nm of about 0.3 and then diluted in fresh MHB to the desired concentrations.
The effects of human serum on the antimicrobial activity of B7-005 were assessed by performing a minimum inhibitory concentration (MIC) assay with some modifications. Non-heat-inactivated human serum (Merk Life Science S.r.l., USA) was diluted to 50%, 40%, 30%, 25%, and 20% (v/v) in MHB and the solutions were aliquoted into the wells of a round-bottomed 96-well microtitre plate (Sarstedt, Milan, Italy). Samples with no serum were used for comparison. B7-005 was diluted in MHB added with the proper amount of serum to a concentration of 128 μM, added to the first column of the plate and serially diluted twofold in MHB, added with the proper amount of serum, in the subsequent wells in a final volume of 50 μl. Then 50 μl of a mid-log suspension of 5 × 10^5 CFU ml^−1 E. coli ATCC 25922 cells prepared in MHB added with the proper amount of serum was added to each well of the plate, halving the final concentration of bacteria and peptide. The plate was incubated at 37°C for 18 h. The MIC value was calculated as the lowest concentration of the compound resulting in complete inhibition of visible bacterial growth. MIC values were determined by performing at least three independent experiments (n ≥ 3).
The resistance selection assay was performed by modifying a previously described method. First, the MIC values of each antimicrobial compound (PrAMP or antibiotic) against E. coli ATCC 25922 were determined and recorded as described above. Serial sub-culturing was started by harvesting bacterial cells growing at one-half MIC and inoculating them into fresh MHB. […] This inoculum was incubated o/n and subjected to another MIC test. After 18 h of incubation, the cells growing at one-half MIC were harvested and used for another similar MIC assay. The process was repeated for 7 or 14 daily passages.

[2] = test system: zebrafish larvae infection model; conditions: simultaneous injection of pathogens and peptide versus post-infection administration; ref [40]; cited from earlier work
From the text: In the current work, the infection of zebrafish larvae with E. coli and their treatment with B7-005 were strictly controlled performing them by microinjection in the Cuvier duct. […] To better ...

Compound: CC[C@H](C)[C@H](NC(=O)[C@H](CCCNC(=N)N)NC(=O)[C@@H](N)CCCNC(=N)N)C(=O)N[C@@H](CCCNC(=N)N)C(=O)N1CCC[C@H]1C(=O)N[C@@H](CCCNC(=N)N)C(=O)N1CCC[C@H]1C(=O)N1CCC[C@H]1C(=O)N[C@@H](CCCNC(=N)N)C(=O)N[C@@H](CC(C)C)C(=O)N1CCC[C@H]1C(=O)N[C@@H](CCCNC(=N)N)C(=O)N1CCC[C@H]1C(=O)N[C@@H](CCCNC(=N)N)C(=O)N1CCC[C@H]1C(=O)N[C@@H](CCCNC(=N)N)C(=O)O [Bac7(1-16)] (H-RRIRPRPPRLPRPRPR-OH)
- MIC after 14th passage ([1]; MHB): 128 µM (≈ 266 µg/mL)

Compound: Bac5: another PrAMP previously used in a zebrafish larvae infection model (RFRPPIRRPPIRPPFYPPFRPPIRPPIFPPIRPPFRPPLGPFP; Bactenecin 5; UniProt P19660 131-173, looked up)
- efficacy in zebrafish larvae infection model [2]: only effective when the pathogens and peptide were simultaneously injected

Compound: CO[C@H]1/C=C/O[C@@]2(C)Oc3c(C)c(O)c4c(O)c(c(/C=N/N5CCN(C)CC5)c(O)c4c3C2=O)NC(=O)/C(C)=C\C=C\[C@H](C)[C@H](O)[C@@H](C)[C@@H](O)[C@@H](C)[C@H](OC(C)=O)[C@@H]1C [rifampicin]
- MIC [1]: 1020 µM (≈ 843 µg/mL)
- fold increase in MIC ([1]; after 4 passages at one-half MIC): 64 fold

Compound: colistin
- MIC during serial passaging ([1]; throughout the complete serial passaging process): remained substantially unchanged

Compound: CC[C@H](C)[C@H](NC(=O)[C@H](CCCNC(=N)N)NC(=O)[C@@H](N)CCCNC(=N)N)C(=O)N[C@@H](CCCNC(=N)N)C(=O)N1CCC[C@H]1C(=O)N[C@@H](CCCNC(=N)N)C(=O)N1CCC[C@H]1C(=O)N1CCC[C@H]1C(=O)N[C@@H](CCCNC(=N)N)C(=O)N[C@@H](CC(C)C)C(=O)N1CCC[C@H]1C(=O)N[C@@H](CCCNC(=N)N)C(=O)N1CCC[C@H]1C(=O)N[C@@H](CCCNC(=N)N)C(=O)N1CCC[C@H]1C(=O)N[C@@H](CCCNC(=N)N)C(=O)N1CCC[C@H]1C(=O)N[C@@H](CC(C)C)C(=O)N1CCC[C@H]1C(=O)N[C@@H](Cc1ccccc1)C(=O)N1CCC[C@H]1C(=O)N[C@@H](CCCNC(=N)N)C(=O)N1CCC[C@H]1C(=O)NCC(=O)N1CCC[C@H]1C(=O)N[C@@H](CCCNC(=N)N)C(=O)N1CCC[C@H]1C(=O)N[C@H](C(=O)N1CCC[C@H]1C(=O)N[C@@H](CCCNC(=N)N)C(=O)N1CCC[C@H]1C(=O)N[C@@H](CC(C)C)C(=O)N1CCC[C@H]1C(=O)N[C@@H](Cc1ccccc1)C(=O)N1CCC[C@H]1C(=O)O)[C@@H](C)CC [Bac7(1-35)] (H-RRIRPRPPRLPRPRPRPLPFPRPGPRPIPRPLPFP-OH; N-terminus and C-terminus assumed)
- MIC after 14th passage ([1]; MHB): 128 µM (≈ 539 µg/mL)
- passage (cycle) after which MIC started to increase ([1]; serial passages at one-half MIC, MHB): 5

Compound: O=C(N[C@H](CO)[C@H](O)c1ccc([N+](=O)[O-])cc1)C(Cl)Cl [chloramphenicol]
- MIC [1]: 1020 µM (≈ 331 µg/mL)
- fold increase in MIC ([1]; after 8 passages at one-half MIC): 64 fold
